#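 Values below derive from 48-hour exposures of cells grown in 96-well plates, with endpoints linearly interpolated between the two concentrations bracketing the appropriate inhibition level. At the GI50, growth is halved.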 Active and inactive are the calls of the source. No stated cut-off is given here; in the data, active = GI50 up to about 1.1 µM and inactive = higher. Peptide text beside a SMILES is read from it. * marks the point of attachment. OSu = O=C1CCC(=O)N1O*
# Tests used:
# Test in all cases: inhibition of tumour cell growth, NCI panel, 48 h
# [1] = tested on: 786-0
# [2] = tested on: A498
# [3] = tested on: A549
# [4] = tested on: HL-60
# [5] = tested on: HOP-92
# [6] = tested on: HT-29
# [7] = tested on: Hs-578T
# [8] = tested on: K562
# [9] = tested on: MCF7
# [10] = tested on: MDA-N
# [11] = tested on: MOLT-4
# [12] = tested on: NCI-H460
# [13] = tested on: OVCAR-8
# [14] = tested on: SF-295
# [15] = tested on: SF-539
# [16] = tested on: SK-MEL-28
# [17] = tested on: SN12C
# [18] = tested on: SW-620
# [19] = tested on: TK-10
# [20] = tested on: UACC-62
Structure (SMILES),GI50 [1],GI50 [2],GI50 [3],GI50 [4],GI50 [5],GI50 [6],GI50 [7],GI50 [8],GI50 [9],GI50 [10],GI50 [11],GI50 [12],GI50 [13],GI50 [14],GI50 [15],GI50 [16],GI50 [17],GI50 [18],GI50 [19],GI50 [20]
N#Cc1c(C#N)c(SSc2c(C#N)c(C#N)c(N)n2-c2cccc3ccccc23)n(-c2cccc3ccccc23)c1N,1.98 µM (inactive),30.2 µM (inactive),19.9 µM (inactive),2.33 µM (inactive),4.71 µM (inactive),19.7 µM (inactive),24.6 µM (inactive),3.51 µM (inactive),3.47 µM (inactive),6.11 µM (inactive),2.63 µM (inactive),46.8 µM (inactive),4.36 µM (inactive),19.9 µM (inactive),15.7 µM (inactive),6.03 µM (inactive),12 µM (inactive),2.56 µM (inactive),5.77 µM (inactive),18 µM (inactive)
CCOC(=O)CCN1C(=O)c2c(NC(=O)C(=O)O)cccc2S1(=O)=O,> 100 µM (inactive),> 100 µM (inactive),> 100 µM (inactive),> 100 µM (inactive),> 100 µM (inactive),> 100 µM (inactive),> 100 µM (inactive),> 100 µM (inactive),> 100 µM (inactive),> 100 µM (inactive),> 100 µM (inactive),> 100 µM (inactive),> 100 µM (inactive),> 100 µM (inactive),–,> 100 µM (inactive),> 100 µM (inactive),> 100 µM (inactive),> 100 µM (inactive),> 100 µM (inactive)
Cc1ccc(/N=N/C(=N\c2ccc(F)cc2)c2ccc(N(CCC#N)CCC#N)cc2)cc1,> 100 µM (inactive),> 100 µM (inactive),45.9 µM (inactive),–,> 100 µM (inactive),> 100 µM (inactive),53.7 µM (inactive),> 100 µM (inactive),42.5 µM (inactive),> 100 µM (inactive),> 100 µM (inactive),33.5 µM (inactive),77.4 µM (inactive),> 100 µM (inactive),> 100 µM (inactive),> 100 µM (inactive),> 100 µM (inactive),> 100 µM (inactive),> 100 µM (inactive),> 100 µM (inactive)
O=[N+]([O-])C(=C(Nc1ccccc1)Nc1ccccc1)C(Cl)=C(Cl)Cl,15.8 µM (inactive),9.93 µM (inactive),17.7 µM (inactive),–,15.8 µM (inactive),16.4 µM (inactive),21.7 µM (inactive),10.3 µM (inactive),12 µM (inactive),12.6 µM (inactive),–,16.1 µM (inactive),22.9 µM (inactive),17.8 µM (inactive),20.2 µM (inactive),18.7 µM (inactive),17.1 µM (inactive),14.5 µM (inactive),22.6 µM (inactive),15.6 µM (inactive)
O=[N+]([O-])c1ccc2c(c1)c1nn2CCCCOc2nn(c3ccc([N+](=O)[O-])cc23)CCCCO1,> 100 µM (inactive),> 100 µM (inactive),–,> 100 µM (inactive),> 100 µM (inactive),–,> 100 µM (inactive),> 100 µM (inactive),> 100 µM (inactive),> 100 µM (inactive),> 100 µM (inactive),> 100 µM (inactive),> 100 µM (inactive),> 100 µM (inactive),> 100 µM (inactive),> 100 µM (inactive),> 100 µM (inactive),–,–,–
CN(C(=O)CCC(=O)O)c1ccccc1C(=O)O,> 100 µM (inactive),> 100 µM (inactive),> 100 µM (inactive),> 100 µM (inactive),> 100 µM (inactive),> 100 µM (inactive),> 100 µM (inactive),> 100 µM (inactive),> 100 µM (inactive),> 100 µM (inactive),> 100 µM (inactive),> 100 µM (inactive),> 100 µM (inactive),> 100 µM (inactive),> 100 µM (inactive),> 100 µM (inactive),–,> 100 µM (inactive),> 100 µM (inactive),> 100 µM (inactive)
CCCCCCCCCCCCCCCCNC(=O)/C(=C\c1ccc(Cl)c(Cl)c1)NC(=O)c1ccccc1,19.4 µM (inactive),19.9 µM (inactive),43.6 µM (inactive),0.431 µM (active),14.2 µM (inactive),35.5 µM (inactive),42.8 µM (inactive),22 µM (inactive),25.9 µM (inactive),68.7 µM (inactive),15.5 µM (inactive),36.6 µM (inactive),59.6 µM (inactive),55.2 µM (inactive),16.5 µM (inactive),70.1 µM (inactive),25.8 µM (inactive),31.7 µM (inactive),20 µM (inactive),–
O=c1oc2ccc3ccccc3c2cc1-c1cn2c(n1)sc1ccccc12,> 100 µM (inactive),> 100 µM (inactive),> 100 µM (inactive),> 100 µM (inactive),55.2 µM (inactive),> 100 µM (inactive),> 100 µM (inactive),2.69 µM (inactive),26.4 µM (inactive),> 100 µM (inactive),3.06 µM (inactive),> 100 µM (inactive),> 100 µM (inactive),> 100 µM (inactive),–,> 100 µM (inactive),–,> 100 µM (inactive),> 100 µM (inactive),92.7 µM (inactive)
CC(NC(=O)OC(C)(C)C)C(=O)NC1CCCC1 (stereo not drawn),> 100 µM (inactive),> 100 µM (inactive),> 100 µM (inactive),> 100 µM (inactive),> 100 µM (inactive),> 100 µM (inactive),> 100 µM (inactive),> 100 µM (inactive),> 100 µM (inactive),> 100 µM (inactive),> 100 µM (inactive),> 100 µM (inactive),> 100 µM (inactive),> 100 µM (inactive),–,> 100 µM (inactive),> 100 µM (inactive),> 100 µM (inactive),> 100 µM (inactive),–
COc1cccc(/C=C2\S/C(=N/Nc3nc(-c4ccc([N+](=O)[O-])cc4)cs3)NC2=O)c1O,19.9 µM (inactive),23.4 µM (inactive),15.9 µM (inactive),4.45 µM (inactive),10.3 µM (inactive),21.9 µM (inactive),12.3 µM (inactive),–,16.6 µM (inactive),22.2 µM (inactive),22.1 µM (inactive),12.6 µM (inactive),13.6 µM (inactive),16.9 µM (inactive),7.82 µM (inactive),20.8 µM (inactive),22.1 µM (inactive),19.3 µM (inactive),20.7 µM (inactive),–
Cc1c(C)c2c(c(N)c1C#N)C(=O)N(NC(=O)c1ccccc1)C2=O,> 100 µM (inactive),> 100 µM (inactive),> 100 µM (inactive),> 100 µM (inactive),> 100 µM (inactive),–,> 100 µM (inactive),> 100 µM (inactive),> 100 µM (inactive),> 100 µM (inactive),> 100 µM (inactive),> 100 µM (inactive),> 100 µM (inactive),> 100 µM (inactive),> 100 µM (inactive),> 100 µM (inactive),> 100 µM (inactive),> 100 µM (inactive),> 100 µM (inactive),> 100 µM (inactive)
CC1=C[C@@H](C)C[C@]2(C)CC[C@H](O2)[C@]23CC[C@](CO)(C[C@H](O2)[C@@H]2O[C@@](C)(CC2=O)[C@@H](O)[C@H]2CC[C@@]4(CCC[C@@H](O4)[C@H](C)C(=O)O[C@H]4C[C@H]([C@]5(O)OCC[C@H](C)[C@@H]5O)O[C@H]4C=C1)O2)O3,0.00843 µM (active),0.00229 µM (active),0.0294 µM (active),0.0809 µM (active),0.00163 µM (active),0.0166 µM (active),0.00163 µM (active),0.0183 µM (active),> 10 µM (inactive),0.0951 µM (active),–,0.0333 µM (active),0.0562 µM (active),0.00341 µM (active),0.00272 µM (active),0.0124 µM (active),0.0212 µM (active),0.214 µM (active),0.0179 µM (active),0.00325 µM (active)
NCCCCC(NC(=O)C(N)Cc1ccc(O)cc1)C(=O)NC(Cc1ccc(O)cc1)C(=O)NC(CCCCN)C(=O)ON1C(=O)CCC1=O (stereo not drawn) (H-YKYK-OSu; configuration not given here),> 100 µM (inactive),> 100 µM (inactive),> 100 µM (inactive),> 100 µM (inactive),> 100 µM (inactive),> 100 µM (inactive),> 100 µM (inactive),> 100 µM (inactive),> 100 µM (inactive),> 100 µM (inactive),> 100 µM (inactive),> 100 µM (inactive),> 100 µM (inactive),–,–,> 100 µM (inactive),> 100 µM (inactive),> 100 µM (inactive),> 100 µM (inactive),> 100 µM (inactive)
O=c1c2cc(O)c(O)cc2oc2cc(O)c(C3OC(CO)C(O)C(O)C3O)c(O)c12 (stereo not drawn),> 100 µM (inactive),> 100 µM (inactive),> 100 µM (inactive),> 100 µM (inactive),> 100 µM (inactive),> 100 µM (inactive),> 100 µM (inactive),> 100 µM (inactive),> 100 µM (inactive),> 100 µM (inactive),> 100 µM (inactive),> 100 µM (inactive),> 100 µM (inactive),> 100 µM (inactive),> 100 µM (inactive),> 100 µM (inactive),–,> 100 µM (inactive),> 100 µM (inactive),> 100 µM (inactive)

# From ChEMBL document CHEMBL1201862, “PubChem BioAssay data set” (2004)
